Laboratory results as given in US10093683B2, “Factor XIa inhibitors” (Merck Sharp & Dohme Corp., priority 2014, dated 2018).
pKi: −log10 of the molar value.

target: human Factor XIa (Homo sapiens (Human), UniProt P03951); experiment: Factor XIa Assay; format: biochemical; details: purified human Factor XIa 40 pM, Z-Gly-Pro-Arg-AFC 100 μM, pH 7.4; read-out: FXIa Ki
How it was run: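 Purified human FXIa (40 pM final) hydrolysing fluorogenic Z-Gly-Pro-Arg-AFC (100 μM) in 50 mM HEPES pH 7.4, 150 mM NaCl, 5 mM CaCl2, 0.1% PEG 8000, at room temperature or 37° C. Initial velocities measured after enzyme–inhibitor equilibration; Ki from Vo/Vi versus [I], assuming competitive inhibition.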

Sequence of human Factor XIa (P03951 388-625): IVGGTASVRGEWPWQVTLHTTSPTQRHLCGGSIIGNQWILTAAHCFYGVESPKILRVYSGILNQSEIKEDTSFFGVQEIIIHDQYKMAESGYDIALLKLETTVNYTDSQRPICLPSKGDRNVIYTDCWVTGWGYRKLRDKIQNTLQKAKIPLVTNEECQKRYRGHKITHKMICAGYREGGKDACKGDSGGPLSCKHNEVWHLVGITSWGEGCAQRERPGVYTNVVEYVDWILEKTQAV
Sequence of human Factor XIa (P03951 19-387 partner): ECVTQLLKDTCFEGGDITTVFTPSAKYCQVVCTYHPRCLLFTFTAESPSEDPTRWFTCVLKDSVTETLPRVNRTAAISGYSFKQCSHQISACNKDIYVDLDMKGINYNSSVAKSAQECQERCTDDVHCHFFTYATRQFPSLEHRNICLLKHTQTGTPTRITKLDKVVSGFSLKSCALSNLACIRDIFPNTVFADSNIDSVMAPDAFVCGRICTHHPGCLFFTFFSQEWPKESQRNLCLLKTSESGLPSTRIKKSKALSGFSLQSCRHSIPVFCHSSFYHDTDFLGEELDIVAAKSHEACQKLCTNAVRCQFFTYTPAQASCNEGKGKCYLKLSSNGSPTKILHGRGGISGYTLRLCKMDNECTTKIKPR

Row | Structure (SMILES) | pKi
1 | O=C1Nc2ccc(Cl)cc2[C@@]2(CCCN(C(=O)C(Cc3ccc(F)cc3)c3nc4ccc(F)cc4[nH]3)C2)O1 (stereo partly drawn) [Example 133, (4R)-6-chloro-1′-(2-(6-fluoro-1H-benzo[d]imidazol-2-yl)-3-(4-fluorophenyl)propanoyl)spiro[benzo[d][1,3]oxazine-4,3′-piperidin]-2(1H)-one] | 5.06
2 | COC(=O)Nc1ccc2[nH]c(C(Cc3ccccc3)C(=O)N3CCC[C@@]4(C3)OC(=O)Nc3ccc(Cl)c(F)c34)cc2c1 (stereo partly drawn) [Example 134, methyl (2-(1-((R)-6-chloro-5-fluoro-2-oxo-1,2-dihydrospiro[benzo[d][1,3]oxazine-4,3′-piperidin]-1′-yl)-1-oxo-3-phenylpropan-2-yl)-1H-indol-5-yl)carbamate] | < 6.06
3 | O=C1Nc2ccc(Cl)cc2[C@@]2(CCCN(C(=O)C(CC3CC3)Nc3n[nH]c4cc(F)ccc34)C2)O1 (stereo partly drawn) [Example 135, (4R)-6-chloro-1′-(3-cyclopropyl-2-((6-fluoro-1H-indazol-3-yl)amino)propanoyl)spiro[benzo[d][1,3]oxazine-4,3′-piperidin]-2(1H)-one] | < 5.06
4 | COC(=O)Nc1ccc2onc(N[C@@H](Cc3ccccc3)C(=O)N3CCC[C@@]4(C3)OC(=O)Nc3ccc(Cl)cc34)c2c1 [Example 138, methyl (3-(((S)-1-((R)-6-chloro-2-oxo-1,2-dihydrospiro[benzo[d][1,3]oxazine-4,3′-piperidin]-1′-yl)-1-oxo-3-phenylpropan-2-yl)amino)benzo[d]isoxazol-5-yl)carbamate] | 5.06

same assay, conditions: read-out: FXIa Ki

Row | Structure (SMILES) | pKi
5 | NS(=O)(=O)c1ccc(C(=O)N[C@@H](Cc2ccccc2)C(=O)N2CCC3(C2)OC(=O)Nc2ccc(Cl)cc23)cc1 (stereo partly drawn) [Example 139, N-((2S)-1-(6-chloro-2-oxo-1,2-dihydrospiro[benzo[d][1,3]oxazine-4,3′-pyrrolidin]-1′-yl)-1-oxo-3-phenylpropan-2-yl)-4-sulfamoylbenzamide] | 6.03
6 | O=C1Nc2ccc(Cl)cc2C2(CCN(C(=O)[C@H](Cc3ccccc3)NC(=O)c3ccc4[nH]ncc4c3)C2)O1 (stereo partly drawn) [Example 142] | 7.32
7 | Cc1nccnc1C(=O)N[C@@H](Cc1ccccc1)C(=O)N1CCC2(C1)OC(=O)Nc1ccc(Cl)cc12 (stereo partly drawn) [Example 145] | 5.48
8 | Cc1nc(C(=O)N[C@@H](Cc2ccccc2)C(=O)N2CCC3(C2)OC(=O)Nc2ccc(Cl)cc23)co1 (stereo partly drawn) [Example 146] | 5.30
9 | COc1ccc(C(=O)N[C@@H](Cc2ccccc2)C(=O)N2CCC3(C2)OC(=O)Nc2ccc(Cl)cc23)nc1 (stereo partly drawn) [Example 147] | 5.39
10 | CS(=O)(=O)c1ccc(C(=O)N[C@@H](Cc2ccccc2)C(=O)N2CCC3(C2)OC(=O)Nc2ccc(Cl)cc23)nc1 (stereo partly drawn) [Example 148] | 5.73
11 | N#Cc1ccc(C(=O)N[C@@H](Cc2ccccc2)C(=O)N2CCC3(C2)OC(=O)Nc2ccc(Cl)cc23)cc1 (stereo partly drawn) [Example 150, N-((2S)-1-(6-chloro-2-oxo-1,2-dihydrospiro[benzo[d][1,3]oxazine-4,3′-pyrrolidin]-1′-yl)-1-oxo-3-phenylpropan-2-yl)-4-cyanobenzamide] | 6.37
12 | O=C1Nc2ccc(Cl)cc2C2(CCN(C(=O)[C@H](Cc3ccccc3)NC(=O)c3ccc(-c4nnn[nH]4)cc3)C2)O1 (stereo partly drawn) [Example 151, N-((2S)-1-(6-chloro-2-oxo-1,2-dihydrospiro[benzo[d][1,3]oxazine-4,3′-pyrrolidin]-1′-yl)-1-oxo-3-phenylpropan-2-yl)-4-(1H-tetrazol-5-yl)benzamide] | 5.75
13 | N#Cc1ccc(C(=O)N[C@@H](Cc2ccccc2)C(=O)N2CCC3(C2)OC(=O)Nc2ccc(Cl)cc23)cn1 (stereo partly drawn) [Example 152] | 5.99
14 | O=C1Nc2ccc(Cl)cc2C2(CCN(C(=O)[C@H](Cc3ccccc3)NC(=O)c3ccc4[nH]ccc4n3)C2)O1 (stereo partly drawn) [Example 153] | 6.31
15 | O=C1Nc2ccc(Cl)cc2C2(CCN(C(=O)[C@H](Cc3ccccc3)NC(=O)c3ccccc3-n3cccn3)C2)O1 (stereo partly drawn) [Example 154, N-((2S)-1-(6-chloro-2-oxo-1,2-dihydrospiro[benzo[d][1,3]oxazine-4,3′-pyrrolidin]-1′-yl)-1-oxo-3-phenylpropan-2-yl)-2-(1H-pyrazol-1-yl)benzamide] | 5.60
16 | O=C1Nc2ccc(Cl)cc2C2(CCN(C(=O)[C@H](Cc3ccccc3)NC(=O)c3ccnc(O)c3)C2)O1 (stereo partly drawn) [Example 155] | 6.77
17 | O=C1Nc2ccc(Cl)cc2C2(CCN(C(=O)[C@H](Cc3ccccc3)NC(=O)c3ccon3)C2)O1 (stereo partly drawn) [Example 156] | 5.67
18 | O=C1Nc2ccc(Cl)cc2C2(CCN(C(=O)[C@H](Cc3ccccc3)NC(=O)C3CCC(CO)CC3)C2)O1 (stereo partly drawn) [Example 157] | 5.47
19 | O=C1Nc2ccc(Cl)cc2C2(CCN(C(=O)[C@H](Cc3ccccc3)NC(=O)c3ccc(CO)nc3)C2)O1 (stereo partly drawn) [Example 158] | 6.12
20 | O=C1Nc2ccc(Cl)cc2C2(CCN(C(=O)[C@H](Cc3ccccc3)NC(=O)c3ccc(-n4ccnc4)nc3)C2)O1 (stereo partly drawn) [Example 159] | 6.13
21 | O=C1Nc2ccc(Cl)cc2C2(CCN(C(=O)[C@H](Cc3ccccc3)NC(=O)c3ccc(C4(C(=O)O)CC4)cc3)C2)O1 (stereo partly drawn) [Example 160, 1-(4-(((2S)-1-(6-chloro-2-oxo-1,2-dihydrospiro[benzo[d][1,3]oxazine-4,3′-pyrrolidin]-1′-yl)-1-oxo-3-phenylpropan-2-yl)carbamoyl)phenyl)cyclopropanecarboxylic acid] | 5.30
22 | O=C1Nc2ccc(Cl)cc2C2(CCN(C(=O)[C@H](Cc3ccccc3)NC(=O)C3(c4ccc(C(=O)O)cc4)CC3)C2)O1 (stereo partly drawn) [Example 161] | 5.35
23 | O=C1Nc2ccc(Cl)cc2C2(CCN(C(=O)[C@H](Cc3ccccc3)NC(=O)c3ccc(NC(=O)C(F)(F)F)cc3)C2)O1 (stereo partly drawn) [Example 162, N-((2S)-1-(6-chloro-2-oxo-1,2-dihydrospiro[benzo[d][1,3]oxazine-4,3′-pyrrolidin]-1′-yl)-1-oxo-3-phenylpropan-2-yl)-4-(2,2,2-trifluoroacetamido)benzamide] | 6.23
24 | CS(=O)(=O)Nc1ccc(C(=O)N[C@@H](Cc2ccccc2)C(=O)N2CCC3(C2)OC(=O)Nc2ccc(Cl)cc23)cc1 (stereo partly drawn) [Example 163, N-((2S)-1-(6-chloro-2-oxo-1,2-dihydrospiro[benzo[d][1,3]oxazine-4,3′-pyrrolidin]-1′-yl)-1-oxo-3-phenylpropan-2-yl)-4-(methylsulfonamido)benzamide] | 7.20
25 | COC(=O)Nc1ccc(C(=O)N[C@@H](Cc2ccccc2)C(=O)N2CCC3(C2)OC(=O)Nc2ccc(Cl)cc23)nc1 (stereo partly drawn) [Example 166] | 6.73
26 | O=C1Nc2ccc(Cl)cc2C2(CCN(C(=O)[C@H](Cc3ccccc3)NC(=O)c3cnc4[nH]c(=O)oc4c3)C2)O1 (stereo partly drawn) [Example 167] | 5.38
27 | CC(=O)Nc1cc(C(=O)N[C@@H](Cc2ccccc2)C(=O)N2CCC3(C2)OC(=O)Nc2ccc(Cl)cc23)ccn1 (stereo partly drawn) [Example 168] | 6.24
28 | O=C1Nc2ccc(Cl)cc2C2(CCN(C(=O)[C@H](Cc3ccccc3)NC(=O)c3cccc(N4CCNC4=O)c3)C2)O1 (stereo partly drawn) [Example 169, N-((2S)-1-(6-chloro-2-oxo-1,2-dihydrospiro[benzo[d][1,3]oxazine-4,3′-pyrrolidin]-1′-yl)-1-oxo-3-phenylpropan-2-yl)-3-(2-oxoimidazolidin-1-yl)benzamide] | 6.11
29 | Cc1nc(N)sc1C(=O)N[C@@H](Cc1ccccc1)C(=O)N1CCC2(C1)OC(=O)Nc1ccc(Cl)cc12 (stereo partly drawn) [Example 170] | 6.29
30 | O=C1Nc2ccc(Cl)cc2C2(CCN(C(=O)[C@H](Cc3ccccc3)NC(=O)c3ccc4c(c3)C(=O)NC4)C2)O1 (stereo partly drawn) [Example 172] | 6.48
